Measured values taken from PubChem BioAssay (NCI).
Several values for one entry are separate records, joined by “and”; a condition that tells them apart may be missing. Identical values can stand only once.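 48-hour exposure; five concentrations; linearly interpolated endpoints. GI50: concentration for 50% inhibition of growth. TGI is the concentration that stops growth completely.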

Tested on: MDA-MB-468 breast
Assay: NCI-60 cell line screen, 48 h

## Cc1cc(C)c2nc(Nc3nc(C)c(C)c(=O)[nH]3)nc(C)c2c1
  GI50: 2130 nM
  TGI: 5890 nM

## CCCCCc1c(C)[nH]c(/C=C2\N=C(c3ccc[nH]3)C=C2Oc2ccc(OC)cc2)c1C
  GI50: 65.5 nM and 27.1 nM
  TGI: 2040 nM and 288 nM

## O=C1/C(=C/c2ccc(F)cc2)CN(Cc2cn(CCNc3ccnc4cc(Cl)ccc34)nn2)C/C1=C\c1ccc(F)cc1
  GI50: 1390 nM
  TGI: 3130 nM

## COc1cccc(-n2cnc3c(N/N=C/c4ccncc4)ncnc32)c1
  GI50: 6400 nM
  TGI: > 25000 nM

## COC(=O)c1ccc2c(c1)[n+](=O)c(C(C)=O)c(C(F)(F)F)n2[O-]
  GI50: 1560 nM
  TGI: 3040 nM

## CN1CCN(c2nc(NCCNc3ccnc4cc(Cl)ccc34)c3ccccc3n2)CC1
  GI50: 1460 nM
  TGI: 4640 nM

## N=C(N)c1ccc(-c2ccc(-c3ccco3)o2)cc1
  GI50: 1390 nM
  TGI: 3790 nM

## Oc1ccc(Br)cc1CN1CCN(Cc2ccc(Cl)cc2)CC1
  GI50: 5100 nM
  TGI: 55800 nM

## COc1cc(C2C3=C(COC3=O)N(CCO)c3cc4c(cc32)OCCO4)cc(OC)c1O (stereo not drawn)
  GI50: 1010 nM
  TGI: > 11600 nM

## COc1ccc(/C(C#N)=C/c2nc3c(N4CCOCC4)nc(Cl)nc3n2C)cc1OC
  GI50: 20.4 nM
  TGI: 1340 nM

## COc1ccc(C2CC(c3cccc(Nc4ccnc5cc(Cl)ccc45)c3)=NN2c2ccccc2)cc1 (stereo not drawn)
  GI50: 2130 nM
  TGI: 34300 nM

## COc1cc(OC)cc(-c2n[nH]nc2-c2ccc3c(c2)OCO3)c1
  GI50: 226 nM
  TGI: 25800 nM

## CC(=O)c1c[nH]c2ccc(-c3ccnc(Nc4ccc(NC(=O)c5cccc(F)c5)c(CN5CCOCC5)c4)n3)cc12
  GI50: 172 nM
  TGI: 582 nM

## CCCCCCCC(=O)SCC/C=C/[C@@H]1CC(=O)NCc2cccc(n2)CN(Cc2ccc(Cl)cc2)CC(=O)N[C@@H](C(C)C)C(=O)O1
  GI50: 13800 nM
  TGI: > 100000 nM

## COc1ccc(CNCCN2C(=O)c3ccc4c5c(ccc(c35)C2=O)C(=O)N(CCNCc2ccc(OC)cc2)C4=O)cc1
  GI50: 191 nM
  TGI: 482 nM

## C=CC[n+]1c(/C=C2\Sc3ccccc3N2C)sc(-c2ccccc2)c1-c1ccccc1
  GI50: 251 nM
  TGI: 911 nM

## CCSc1sc(-c2ccc(C)cc2)nc1[P+](c1ccccc1)(c1ccccc1)c1ccccc1
  GI50: 219 nM
  TGI: 731 nM

## Nc1ncnc2c1ncn2C1OC(CO)C(O)C1O (stereo not drawn)
  GI50: 2140 nM
  TGI: 5410 nM

## COc1cc(C2CC(c3ccc(C)cc3)=NN2C(C)=O)ccc1Oc1ccnc2cc(Cl)ccc12 (stereo not drawn)
  GI50: 20700 nM
  TGI: > 100000 nM

## O=C(CCCCCn1c2ccccc2c2c3c(c4c5ccccc5[nH]c4c21)C(=O)N(O)C3=O)N1CCOCC1
  GI50: 2710 nM
  TGI: 5900 nM

## CN1CCN(c2nc(C3=C(c4c[nH]c5ccccc45)C(=O)NC3=O)c3ccccc3n2)CC1
  GI50: 13400 nM and 15000 nM
  TGI: 43600 nM and 30400 nM

## O=c1cc(N2CCOCC2)oc2c(-c3ccccc3)cccc12
  GI50: 2850 nM
  TGI: 18000 nM

## CC(C)=CCNc1ncnc2c1ncn2C1OC(COP(=O)(O)O)C(O)C1O (stereo not drawn)
  GI50: 2010 nM
  TGI: 5400 nM

## O=C(NCCc1ccccc1)C(c1csc2ccccc12)N(C(=O)CCl)c1ccc(-c2cnco2)cc1 (stereo not drawn)
  GI50: 812 nM
  TGI: 2600 nM
